Values of other authors in article PMC4310808 (European journal of medicinal chemistry, 2014).
No end group written: not given here.

Tested on: erythrocytes

Sequence: GIINTLQKYYCRVRGGRCAVLSCLPKEEQIGKCSTRGRKCCRRKK (also: bicyclic or more (positions not given here)) [HβD-3, Human beta defensin-3]
- Hemolytic activity at physiological salt concentrations: no hemolytic activity
